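In this assay, cells in 96-well plates receive the compound at five concentrations for 48 hours. Endpoints are linearly interpolated between the surrounding concentrations. Here, GI50 denotes the concentration required for 50% inhibition of growth.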 Active and inactive are the calls of the source. No stated cut-off is given here; in the data, active = GI50 up to about 1.1 µM and inactive = higher.
Legend:
Assay in all cases: NCI tumour cell line growth inhibition, 48 h
786-0 = tested on: 786-0
A498 = tested on: A498
A549 = tested on: A549
ACHN = tested on: ACHN
BT-549 = tested on: BT-549
CAKI-1 = tested on: CAKI-1
CCRF-CEM = tested on: CCRF-CEM
COLO 205 = tested on: COLO 205
DU-145 = tested on: DU-145
EKVX = tested on: EKVX
HCC 2998 = tested on: HCC 2998
HCT-116 = tested on: HCT-116
HCT-15 = tested on: HCT-15
HL-60 = tested on: HL-60
HOP-62 = tested on: HOP-62
HT-29 = tested on: HT-29
Hs-578T = tested on: Hs-578T
IGROV-1 = tested on: IGROV-1
K562 = tested on: K562
KM12 = tested on: KM12
M14 = tested on: M14
MCF7 = tested on: MCF7
MDA-MB-231 = tested on: MDA-MB-231
MDA-N = tested on: MDA-N
MOLT-4 = tested on: MOLT-4
Malme-3M = tested on: Malme-3M
NCI-H226 = tested on: NCI-H226
NCI-H23 = tested on: NCI-H23
NCI-H460 = tested on: NCI-H460
NCI-H522 = tested on: NCI-H522
NCI/ADR-RES = tested on: NCI/ADR-RES
OVCAR-3 = tested on: OVCAR-3
OVCAR-4 = tested on: OVCAR-4
OVCAR-5 = tested on: OVCAR-5
OVCAR-8 = tested on: OVCAR-8
PC-3 = tested on: PC-3
RXF 393 = tested on: RXF 393
SF-268 = tested on: SF-268
SF-295 = tested on: SF-295
SF-539 = tested on: SF-539
SK-MEL-28 = tested on: SK-MEL-28
SK-MEL-2 = tested on: SK-MEL-2
SK-MEL-5 = tested on: SK-MEL-5
SK-OV-3 = tested on: SK-OV-3
SN12C = tested on: SN12C
SNB-19 = tested on: SNB-19
SNB-75 = tested on: SNB-75
SR = tested on: SR
SW-620 = tested on: SW-620
T47D = tested on: T47D
TK-10 = tested on: TK-10
U-251 = tested on: U-251
UACC-257 = tested on: UACC-257
UACC-62 = tested on: UACC-62
UO-31 = tested on: UO-31
HOP-92 = tested on: HOP-92
LOX IMVI = tested on: LOX IMVI
MDA-MB-435 = tested on: MDA-MB-435
RPMI-8226 = tested on: RPMI-8226

## COC(=O)Nc1nc(=O)c2ccccc2[nH]1
786-0
  GI50: > 100 µM (inactive)
A498
  GI50: > 10 µM (inactive)
A549
  GI50: 0.0775 µM (active)
ACHN
  GI50: > 100 µM (inactive)
BT-549
  GI50: > 100 µM (inactive)
CAKI-1
  GI50: > 100 µM (inactive)
CCRF-CEM
  GI50: > 100 µM (inactive)
COLO 205
  GI50: > 100 µM (inactive)
DU-145
  GI50: > 100 µM (inactive)
EKVX
  GI50: > 100 µM (inactive)
HCC 2998
  GI50: > 100 µM (inactive)
HCT-116
  GI50: 48.8 µM (inactive)
HCT-15
  GI50: > 100 µM
HL-60
  GI50: > 100 µM (inactive)
HOP-62
  GI50: > 100 µM (inactive)
HT-29
  GI50: > 100 µM (inactive)
Hs-578T
  GI50: 76.7 µM (inactive)
IGROV-1
  GI50: > 100 µM (inactive)
K562
  GI50: 31.1 µM (inactive)
KM12
  GI50: 90.4 µM (inactive)
M14
  GI50: > 100 µM (inactive)
MCF7
  GI50: > 100 µM (inactive)
MDA-MB-231
  GI50: > 100 µM (inactive)
MDA-N
  GI50: 19.5 µM (inactive)
MOLT-4
  GI50: > 100 µM (inactive)
Malme-3M
  GI50: 53.3 µM (inactive)
NCI-H226
  GI50: > 100 µM (inactive)
NCI-H23
  GI50: > 100 µM (inactive)
NCI-H460
  GI50: > 100 µM (inactive)
NCI-H522
  GI50: 50.1 µM (inactive)
NCI/ADR-RES
  GI50: > 100 µM (inactive)
OVCAR-3
  GI50: > 100 µM (inactive)
OVCAR-4
  GI50: > 100 µM (inactive)
OVCAR-5
  GI50: > 100 µM (inactive)
OVCAR-8
  GI50: > 100 µM (inactive)
PC-3
  GI50: > 100 µM (inactive)
RXF 393
  GI50: 36.8 µM (inactive)
SF-268
  GI50: > 100 µM (inactive)
SF-295
  GI50: 30.6 µM (inactive)
SF-539
  GI50: > 100 µM (inactive)
SK-MEL-28
  GI50: > 100 µM (inactive)
SK-MEL-2
  GI50: > 100 µM (inactive)
SK-MEL-5
  GI50: 55 µM (inactive)
SK-OV-3
  GI50: 65.3 µM (inactive)
SN12C
  GI50: > 100 µM (inactive)
SNB-19
  GI50: > 100 µM (inactive)
SNB-75
  GI50: 28 µM (inactive)
SR
  GI50: > 100 µM (inactive)
SW-620
  GI50: 79.6 µM (inactive)
T47D
  GI50: > 100 µM (inactive)
TK-10
  GI50: > 100 µM (inactive)
U-251
  GI50: 43.8 µM (inactive)
UACC-257
  GI50: > 100 µM (inactive)
UACC-62
  GI50: > 100 µM (inactive)
UO-31
  GI50: 32.1 µM (inactive)

## CC(=O)OCC1OC(O[C@@H]2C[C@H]3C(C)(C)[C@@H](OC(C)=O)CC[C@]3(C)[C@H]3CC[C@]45C[C@]4(CC[C@H]5[C@@H](C)C[C@@H](O)[C@H](O)C(C)(C)F)[C@@]32C)C(O)C(O)C1O (stereo not given in full)
786-0
  GI50: 1.69 µM (inactive)
A498
  GI50: 18.2 µM (inactive)
A549
  GI50: 1.62 µM (inactive)
ACHN
  GI50: 37.5 µM (inactive)
BT-549
  GI50: 1.72 µM (inactive)
CAKI-1
  GI50: 63.4 µM (inactive)
CCRF-CEM
  GI50: 1.21 µM (inactive)
COLO 205
  GI50: 1.78 µM (inactive)
DU-145
  GI50: > 100 µM (inactive)
EKVX
  GI50: 1.61 µM (inactive)
HCC 2998
  GI50: 25.9 µM (inactive)
HCT-116
  GI50: 1.56 µM (inactive)
HCT-15
  GI50: 2.48 µM
HL-60
  GI50: 1.09 µM (active)
HOP-62
  GI50: 50 µM (inactive)
HOP-92
  GI50: 1.93 µM (inactive)
HT-29
  GI50: 1.64 µM (inactive)
Hs-578T
  GI50: 1.84 µM (inactive)
IGROV-1
  GI50: 2.06 µM (inactive)
K562
  GI50: 1.6 µM (inactive)
KM12
  GI50: 16.2 µM (inactive)
LOX IMVI
  GI50: 1.77 µM (inactive)
M14
  GI50: 1.76 µM (inactive)
MCF7
  GI50: 12.6 µM (inactive)
MDA-MB-231
  GI50: 25.8 µM (inactive)
MDA-MB-435
  GI50: 8.04 µM (inactive)
MDA-N
  GI50: 1.63 µM (inactive)
MOLT-4
  GI50: 1.92 µM (inactive)
Malme-3M
  GI50: 1.71 µM (inactive)
NCI-H23
  GI50: 2.22 µM (inactive)
NCI-H460
  GI50: 16.9 µM (inactive)
NCI-H522
  GI50: 1.68 µM (inactive)
NCI/ADR-RES
  GI50: 10.5 µM (inactive)
OVCAR-3
  GI50: 30.1 µM (inactive)
OVCAR-4
  GI50: 65.9 µM (inactive)
OVCAR-5
  GI50: 1.47 µM (inactive)
OVCAR-8
  GI50: 2.34 µM (inactive)
PC-3
  GI50: 10.6 µM (inactive)
RPMI-8226
  GI50: 1.79 µM (inactive)
RXF 393
  GI50: 57.5 µM (inactive)
SF-268
  GI50: 1.47 µM (inactive)
SF-295
  GI50: 24.7 µM (inactive)
SF-539
  GI50: 1.81 µM (inactive)
SK-MEL-28
  GI50: 1.63 µM (inactive)
SK-MEL-5
  GI50: 1.72 µM (inactive)
SK-OV-3
  GI50: 42.2 µM (inactive)
SN12C
  GI50: 1.73 µM (inactive)
SNB-19
  GI50: 1.68 µM (inactive)
SW-620
  GI50: 1.85 µM (inactive)
T47D
  GI50: > 100 µM (inactive)
TK-10
  GI50: 57.9 µM (inactive)
U-251
  GI50: 18.2 µM (inactive)
UACC-257
  GI50: 7.57 µM (inactive)
UACC-62
  GI50: 23.9 µM (inactive)

## Cc1c(-c2nc(N)c(C#N)c(N)c2C#N)c(=O)oc2ccccc12
786-0
  GI50: 73.8 µM (inactive)
A498
  GI50: > 100 µM (inactive)
A549
  GI50: 45.7 µM (inactive)
ACHN
  GI50: > 100 µM (inactive)
BT-549
  GI50: > 100 µM (inactive)
CAKI-1
  GI50: > 100 µM (inactive)
CCRF-CEM
  GI50: 69 µM (inactive)
COLO 205
  GI50: 60.7 µM (inactive)
DU-145
  GI50: > 100 µM (inactive)
EKVX
  GI50: 68.1 µM (inactive)
HCC 2998
  GI50: > 100 µM (inactive)
HCT-116
  GI50: 78.2 µM (inactive)
HCT-15
  GI50: 80.7 µM
HL-60
  GI50: 63.5 µM (inactive)
HOP-62
  GI50: 67.3 µM (inactive)
HOP-92
  GI50: > 100 µM (inactive)
HT-29
  GI50: 83 µM (inactive)
Hs-578T
  GI50: > 100 µM (inactive)
IGROV-1
  GI50: 9.46 µM (inactive)
K562
  GI50: 59.4 µM (inactive)
KM12
  GI50: 68.4 µM (inactive)
LOX IMVI
  GI50: 60.3 µM (inactive)
M14
  GI50: > 100 µM (inactive)
MCF7
  GI50: 73.6 µM (inactive)
MDA-MB-231
  GI50: > 100 µM (inactive)
MDA-MB-435
  GI50: > 10 µM (inactive)
MDA-N
  GI50: > 100 µM (inactive)
Malme-3M
  GI50: > 100 µM (inactive)
NCI-H226
  GI50: > 100 µM (inactive)
NCI-H23
  GI50: 87.9 µM (inactive)
NCI-H460
  GI50: > 100 µM (inactive)
NCI/ADR-RES
  GI50: > 100 µM (inactive)
OVCAR-3
  GI50: > 100 µM (inactive)
OVCAR-4
  GI50: > 100 µM (inactive)
OVCAR-5
  GI50: > 100 µM (inactive)
OVCAR-8
  GI50: > 100 µM (inactive)
PC-3
  GI50: 34.5 µM (inactive)
RPMI-8226
  GI50: 23.6 µM (inactive)
RXF 393
  GI50: > 100 µM (inactive)
SF-268
  GI50: > 100 µM (inactive)
SF-295
  GI50: 70 µM (inactive)
SF-539
  GI50: > 100 µM (inactive)
SK-MEL-28
  GI50: > 100 µM (inactive)
SK-MEL-2
  GI50: > 100 µM (inactive)
SK-MEL-5
  GI50: 87.5 µM (inactive)
SK-OV-3
  GI50: > 100 µM (inactive)
SN12C
  GI50: > 100 µM (inactive)
SNB-19
  GI50: > 100 µM (inactive)
SNB-75
  GI50: > 100 µM (inactive)
SW-620
  GI50: 68.5 µM (inactive)
T47D
  GI50: 89.5 µM (inactive)
TK-10
  GI50: > 100 µM (inactive)
U-251
  GI50: 55.3 µM (inactive)
UACC-257
  GI50: > 100 µM (inactive)
UACC-62
  GI50: > 100 µM (inactive)
UO-31
  GI50: > 100 µM (inactive)

Reference: ChEMBL document CHEMBL1201862, “PubChem BioAssay data set” (2004)
